Experimental data: patent US20220387457A1 (Qlaris Bio, Inc., priority 2020, published 2022)
Read-outs that look alike come from different tables or passages of the source.

Assays:
[1] = test system: α-SMA, CD31, endothelin-I, fibronectin, VE-cadherin, phospho-eNOS and total eNOS; test: Protein expression (western blot, immunocytochemistry) in 3D HTM/SC constructs; assay type: cell-based, human; conditions: levcromakalim 1, 10 or 100 μM; Y-27632 10 μM
Method: Bioengineered 3D conventional outflow tract constructs using 4 donors (ages 47-91) were treated with […] (5 ng/mL) for 6 days. […] Protein expression of α-smooth muscle actin (α-SMA), CD31, endothelin-I, fibronectin, VE-cadherin, phospho-eNOS and total eNOS was analyzed via western blot. Cellular expression of α-SMA, fibronectin, phospho-eNOS and total eNOS was determined by immunocytochemistry and confocal microscopy. Statistical significance was determined by one-way ANOVA with a Tukey's multiple comparisons test, or by two-way ANOVA.

[2] = Concentration of CKLP1 and levcromakalim in ocular and systemic tissues of hound dogs; assay type: in vivo, hound dog; conditions: for concentration at 23 h: hound, dog
Method: After blood collection for pharmacokinetic studies, bilateral ocular treatment with CKLP1 (10 mM) continued in the hound dogs for 4-5 additional days.
For ocular tissue collection, eyes were enucleated and aqueous humor, vitreous humor, trabecular meshwork, optic nerve, ciliary body, iris, retina and cornea were isolated and stored at −80° C. While collecting tissues during necropsy, portions of heart, kidney, lung, brain, liver and skeletal muscle were immediately frozen for pharmacodynamics analysis, while the remaining tissue samples were immediately fixed in 10% neutral buffered formalin.
Immediately prior to analysis, tissues were thawed and their weight was measured. PBS was added at double the tissue volume homogenized in a rotor stator homogenizer for 30 seconds. […] Detection was accomplished using positive electrospray ionization with multiple-reaction monitoring (MRM). […] Data were acquired and analyzed using Waters MassLynx v4.1 software.

rats = test: 28-day intravenous administration of CKLP1 in rats; assay type: in vivo, rat
Text: Three groups of rats were intravenously administered different doses of CKLP1. The study was 28 days long with a 14-day recovery period.

[3] = test system: human alkaline phosphatase (ALP); test: Conversion of CKLP1 by human alkaline phosphatase, LC/MS-MS, pH 7.4; assay type: biochemical; conditions: up to 2 hours
Method: (§1) Conversion of CKLP1 (200 μM-5.0 mM) was examined by LC/MS-MS following incubation at pH 7.4 with either human alkaline phosphatase (ALP), acid phosphatase, or 5′-nucleotidase (2.01 nM-1.0 μM) for up to 2 hours.

[4] = Toxicity and clinical signs after escalating intravenous doses of CKLP1 in beagles; assay type: in vivo, beagle dog; conditions: both sexes, beagle, dog, in vivo
Method: (§2) Two beagles (one male and one female) were intravenously injected with escalating doses of CKPL1 (0.05 mg/kg, 0.5 mg/kg, 1.5 mg/kg, 3 mg/kg, and 5 mg/kg) to assess the toxicity of CKLP1. The injection was done through the cephalic vein and CKLP1 was administered in a phosphate buffered saline solution ((0.096% sodium phosphate dibasic, 0.089% sodium dihydrogen orthophosphate monohydrate, 0.83% sodium chloride) pH 6.5±0.1 in sterile water for injection USP). The dosing schedule is shown below in Table 3.
(§3) The following parameters and endpoints were evaluated: mortality, clinical observations, body and organ weights, and food consumption. Bioanalytical samples for toxicokinetic parameters (for both CKLP1 and leveromakalim) were collected after each dose level (days 1, 3, 8, 10, and 14) at predose, 1, 3, 6, 8, and 24 hours postdose. Animals were released from the study after completion of the bioanalytical sample collection schedule.

beagles = test: as above; assay type: in vivo, beagle dog; conditions: for dose with red discoloration of the skin: IV
Method: as §2, §3

[5] = test system: Dutch-belted pigmented rabbits (IOP); conditions: previously reported; cited from earlier work
[6] = test system: normotensive hound dogs (IOP); test: Extended-dose (61 days) study of CKLP1 on IOP in hound dogs; assay type: in vivo, hound dog
Method: (§4) To evaluate the effect of IOP lowering long-term, hound dogs (n=5) were treated with 10 mM CKLP1 in one eye and vehicle (PBS) in the contralateral eye once daily for 61 consecutive days. […] On average, IOP was reduced by 18.9±1.3% (reduction of 3.0±0.5 mmHg; p<0.001) in all five hound dogs over the entire treatment period. Additionally, no significant change in systolic (baseline, 141.0±6.7; treatment, 138.9±9.5; p=0.56) or diastolic (baseline, 80.1±8.9; treatment, 78.1±5.9; p=0.76) blood pressure was observed during the treatment period (FIG. 7B). Hound dogs were also evaluated for eye redness, swelling of the eye or eyelids, unusual discharge from eye and overall food intake.
(§5) For the extended dose study, baseline IOPs were measured three times daily for 5 consecutive days. The average of the three measurements was recorded as the daily IOP and averaged over the 5 days for the final pre-treatment value. Following baseline IOP measurements, dogs (n=5) were treated with 10 mM CKLP1 in one eye, while the contralateral eye received vehicle (PBS). IOP was measured at least three times every week at times corresponding to 1, 4, and 23 hours post treatment. Blood pressure was measured three times each week at the 4 hour post treatment time point.

acid phosphatase = test: Conversion of CKLP1 by acid phosphatase, LC/MS-MS, pH 7.4; assay type: biochemical, human; conditions: up to 2 hours
Method: as §1

[7] = test system: hound dogs (systemic blood pressure); test: Systemic blood pressure in hound dogs during 61-day topical CKLP1; assay type: in vivo, hound dog; conditions: 10 mM CKLP1 topical once daily
Method: as §4, §5

[8] = aqueous humor, 23 hours after last dose, topical 10 mM CKLP1 12-13 days, two animals, read-out: concentration in aqueous humor
[9] = ciliary body, 23 hours after last dose, topical 10 mM CKLP1 12-13 days, two animals, read-out: concentration in ciliary body
[10] = cornea, 23 hours after last dose, topical 10 mM CKLP1 12-13 days, two animals, read-out: concentration in cornea
[11] = heart, 23 hours after last dose, topical 10 mM CKLP1 12-13 days, read-out: concentration in heart
[12] = iris, 23 hours after last dose, topical 10 mM CKLP1 12-13 days, two animals, read-out: concentration in iris
[13] = kidney, 23 hours after last dose, topical 10 mM CKLP1 12-13 days, read-out: concentration in kidney
[14] = optic nerve, 23 hours after last dose, topical 10 mM CKLP1 once daily 12-13 days, two animals, read-out: concentration in optic nerve
[15] = retina, 23 hours after last dose, topical 10 mM CKLP1 12-13 days, two animals, read-out: concentration in retina
[16] = trabecular meshwork, 23 hours after last dose, topical 10 mM CKLP1 12-13 days, two animals, read-out: concentration in trabecular meshwork
[17] = vitreous humor, 23 hours after last dose, topical 10 mM CKLP1 12-13 days, two animals, read-out: concentration in vitreous humor
[18] = 10 mM CKLP1 once daily, 61 days, vs vehicle eye

For CC1(C)Oc2ccc(C#N)cc2[C@@H](N2CCCC2=O)[C@@H]1O [Levcromakalim, levcromakalim, reference compound], the “expression of the cell adhesion proteins CD31 and VE-Cadherin” value [1] was “did not significantly affect”, the concentration at 23 h [2, 8] was 1.1 ± 1.5 ng/mL and the concentration at 23 h [2, 9] was < 1 ng/g. For the same molecule, the concentration at 23 h [2, 10] was 1.4 ± 0.3 ng/g, the concentration at 23 h [2, 11] was 0.9 ± 0.8 ng/g and the concentration at 23 h [2, 12] was < 1 ng/g. For the same molecule, the concentration at 23 h [2, 13] was 0.8 ± 1.2 ng/g, the concentration at 23 h ([2]; lung, 23 hours after last dose, topical 10 mM CKLP1 12-13 days, read-out: concentration in lung) was 0.3 ± 0.4 ng/g and the concentration at 23 h [2, 14] was < 1 ng/g. For the same molecule, the concentration at 23 h [2, 15] was < 1 ng/g, the concentration at 23 h [2, 16] was 2 ± 0.5 ng/g and the concentration at 23 h [2, 17] was < 1 ng/g. The concentration in urine ([2]; topical 10 mM CKLP1 12-13 days) was 3.7 ± 4.5 ng/mL.

For CC1(C)Oc2ccc(C#N)cc2[C@@H](N2CCCC2=O)[C@@H]1OP(=O)(O)O [CKLP1], the “food consumption, body weight, body weight gains vs control” value (rats; IV 0.15, 1.5, 15 mg/kg/day, 28 days) was “no difference”, the “Clinical Signs” value (rats; IV CKLP1 0.15 mg/kg/day) was “Red skin forelimbs and hindlimbs; red pinnae; red” and the “Clinical Signs” value (rats; IV CKLP1 1.5 mg/kg/day) was “Red skin forelimbs and hindlimbs; red skin”. For the same molecule, the “Clinical Signs” value (rats; IV CKLP1 15 mg/kg/day) was “Red skin forelimbs and hindlimbs; red skin”, the peripheral vasodilation (rats; following intravenous administration in rats) was “induces peripheral vasodilation” and the “dose with red skin forelimbs and hindlimbs, red pinnae, red scrotums” value (rats; male and female rats, IV) was ≥ 0.15 mg/kg/day. For the same molecule, the “dose with red skin forepaws” value (rats; males and females, IV) was ≥ 1.5 mg/kg/day, the eye color (rats; males, 15 mg/kg) was “Abnormal eye color” and the “rate constant for catalytic conversion (kcat)” value ([3]; CKLP1 200 μM-5.0 mM) was 0.25 s⁻¹. The Km ([3]; CKLP1 200 μM-5.0 mM, read-out: Michaelis constant (Km)) was 630 µM, the “conversion of CKLP1 to levcromakalim” value ([3]; human ALP) was “converted” and the NOAEL ([4]; iv, read-out: no-observed adverse effect level (NOAEL)) was 3 mg/kg. For the same molecule, the MTD ([4]; single escalating IV doses, read-out: maximum tolerated dose (MTD)) was 3 mg/kg, the adverse clinical signs (beagles; IV 5 mg/kg) was “increased heart rate, warm to touch, and/or partly closed eyes” and the “Clinical Signs” value (beagles; IV CKLP1 0.5 mg/kg) was “red discoloration of the skin (pinnae, gums, generalized”. For the same molecule, the “Clinical Signs” value (beagles; IV CKLP1 1.5 mg/kg) was “red discoloration of the skin (pinnae, gums, generalized”, the “Clinical Signs” value (beagles; IV CKLP1 3 mg/kg) was “red discoloration of the skin (pinnae, gums, generalized” and the “Clinical Signs” value (beagles; IV CKLP1 5 mg/kg) was “red discoloration of the skin (pinnae, gums, generalized”. The histological examination (beagles; escalating IV doses) was “no systemic toxicity”, the “mortality, body weight, food consumption” value (beagles; escalating IV doses 0.05-5 mg/kg) was “No mortality, change in body weight or food consumption” and the “dose with red discoloration of the skin” value (beagles; female dog) was ≥ 0.5 mg/kg. The peripheral vasodilation (beagles; following intravenous administration in dogs) was “induces peripheral vasodilation”, the “dose with red discoloration of the skin” value (beagles; male dog) was ≥ 0.05 mg/kg and the “IOP lowered by” value [5] was ~16%. The concentration in lung ([2]; 23 hours after last dose, topical 10 mM CKLP1 12-13 days) was “undetected”, the concentration at 23 h [2, 8] was 10.2 ± 14.4 ng/g and the concentration at 23 h [2, 9] was 10.3 ± 8.1 ng/g. The concentration at 23 h [2, 10] was 31.3 ± 10.8 ng/g, the concentration at 23 h [2, 11] was 3.7 ± 0.5 ng/g and the concentration at 23 h [2, 12] was 4.8 ± 1.1 ng/g. For the same molecule, the concentration at 23 h [2, 13] was 2.7 ± 2.9 ng/g, the concentration at 23 h [2, 14] was 63.8 ± 63.1 ng/g and the concentration at 23 h [2, 15] was 6.2 ± 3.8 ng/g. It also gave a concentration at 23 h [2, 16] of 170 ± 21.6 ng/g, a concentration at 23 h [2, 17] of 24.4 ± 2.4 ng/g and a concentration in urine ([2]; topical 10 mM CKLP1 12-13 days) of 88.0 ± 134.9 ng/mL. For the same molecule, the “average IOP in treated eye” value ([6]; 10 mM CKLP1 once daily, 61 consecutive days) was 12.9±2.0 mmHg, the “eye redness, swelling of the eye or eyelids, unusual discharge from eye, food intake” value ([6]; 10 mM CKLP1 once daily, 61 days) was “No notable findings” and the “IOP reduced by” value [6, 18] was 18.9±1.3%. The IOP reduction [6, 18] was 3.0±0.5 mmHg, the “return of IOP to baseline after CKLP1 administration” value ([6]; dogs (FIG. 7A), same effect in African green monkeys (FIG. 8A)) was “greater than 24 hours” and the “IOP lowered by (summary)” value ([6]; hound dogs) was “approximately 19%”. For the same molecule, the “conversion of CKLP1 to levcromakalim” value (acid phosphatase) was “not”, the “diastolic blood pressure during treatment” value ([7]; baseline 80.1±8.9, p=0.76) was 78.1±5.9 mmHg and the “systolic blood pressure during treatment” value ([7]; baseline 141.0±6.7, p=0.56) was 138.9±9.5 mmHg.
